Test results reported in US5190946A, “Methods and compounds” (Hoffmann-La Roche Inc., priority 1990, dated 1993).
Counter-ions that a name gives are not always drawn. Like-named read-outs stand apart in the source and are kept apart here.

Legend:
[1] = system: adriamycin-resistant subline (P388/ADR); assay: inhibition of growth rate of adriamycin-resistant subline P388/ADR; type: cell-based, murine; conditions: P388/ADR cells, compound alone, read-out: B: IC50 for the adriamycin-resistant subline (P388/ADR)
Text: Such cancer cells are characterized by the fact that they are resistant to a large variety of anti-tumour agents and thus become extremely and increasingly difficult to treat. The compounds of formula I, including those described in British Patent Specification No. 883013, and salts thereof lower this resistance and thus greatly increase the effectiveness of drugs conventionally used in chemotherapy. Such properties can be tested according to the method described in Br. J. […] The Table which follows sets forth for a representative number of compounds of formula I B: the IC50 for the adriamycin-resistant subline (P388/ADR); and […]

P388/ADR cells = assay: inhibition of P388/ADR cells in the presence of a subtoxic concentration of adriamycin (restoring drug sensitivity); type: cell-based, murine; conditions: Mus musculus
Text: (§1) Such cancer cells are characterized by the fact that they are resistant to a large variety of anti-tumour agents and thus become extremely and increasingly difficult to treat. […] Such properties can be tested according to the method described in Br. J.

[2] = system: P388 murine leukemia cells; assay: inhibition of growth rate of P388 cells; type: cell-based; conditions: Mus musculus
Text: as §1

[3] = toxicity, LD50 i.p. after administration of a single dose to mice; conditions: mouse, in vivo, ip, read-out: T: toxicity, LD50
Text: For some of these compounds, the Table also contains toxicity data ("T", LD50, mg/kg i.p. after administration of a single dose to mice).

[4] = P388/ADR cells, with adriamycin 0.2 μM, read-out: C: IC50 for P388/ADR cells, measured in the presence of a subtoxic concentration of adriamycin
[5] = P388 cells, compound alone, read-out: A: concentration for inhibiting the growth rate of P388 cells by 50% (IC50)
[6] = P388/ADR, read-out: C: IC50 for P388/ADR cells, measured in the presence of a subtoxic concentration of adriamycin, P388/ADR cells, with adriamycin 0.2 μM
[7] = P388, read-out: A: concentration for inhibiting the growth rate of P388 cells by 50% (IC50), P388 cells, compound alone

Row | Compound | IC50 ([1]; Mus musculus, P388/ADR) [µM] | IC50 (P388/ADR cells; [4]) [µM] | IC50 [2, 5] [µM] | LD50 [3] [mg/kg] | IC50 (P388/ADR cells; [6]) [µM] | IC50 [2, 7] [µM] | IC50 ([1]; dihydrochloride) [µM]
1 | Cc1cccc(C)c1NC(=O)CCN1CCN(CCOC(=O)C(c2ccccc2)c2ccccc2)CC1 [Compound 1853, 3-[1-(2-diphenylacetoxyethyl)-4-piperazino]propion-2,6-dimethylanilide dihydrochloride] | 60 | 1.2 | 60 |  |  |  | 
2 | CCC(C(=O)OCCN1CCN(CCOC(=O)C(CC)c2ccccc2F)CC1)c1ccccc1F (centres unmarked) [Compound 1775, N,N'-bis[2-[2-(2-fluorophenyl)-2-ethylacetoxy]ethyl]piperazine dihydrochloride] | 60 | 1.5 | 60 |  |  |  | 
3 | O=C(OCCN1CCN(CCOC(=O)C(c2ccccc2)c2ccccc2)CC1)C(c1ccccc1)c1ccccc1 [Compound 1839, N,N'-bis(2-diphenylacetoxyethyl)piperazine] | > 60 |  |  | 200 to 400 | 0.2 | > 60 | 
4 | CCCC(C(=O)OCCN1CCN(CCOC(=O)C(CCC)c2ccccc2)CC1)c1ccccc1 (centres unmarked) [Compound 1838, N,N'-bis[2-(2-n-propyl-2-phenylacetoxy)ethyl]piperazine] | 20 |  |  | 200 to 400 | 0.2 | 20 | 
5 | CCC(C(=O)OCCN1CCN(CCC(=O)Nc2c(C)cccc2C)CC1)c1ccccc1 (centres unmarked) [Compound 1774, 3-[1-(2-Phenyl-2-ethylacetoxy)ethyl-4-piperazino]propion-2,6-dimethylanilide dihydrochloride] | > 60 |  |  | ~200 | 1.2 | > 60 | 
6 | CCC(C(=O)OCCN1CCN(CCOC(=O)C(CC)c2ccccc2C)CC1)c1ccccc1C.Cl.Cl (centres unmarked) [Compound 1776, N,N'-bis[2-[2-(2-methylphenyl)-2-ethylacetoxy]ethyl]piperazine dihydrochloride] | 30 |  |  | 200 to 400 | 0.8 | 30 | 
7 | CCC(C(=O)OCCN1CCN(CCOC(=O)C(CC)c2ccc(Cl)cc2)CC1)c1ccc(Cl)cc1 (centres unmarked) [Compound 1778, N,N'-bis[2-[2-(4-chlorophenyl)-2-ethylacetoxy]ethyl]piperazine dihydrochloride] | 20 | 1 | 30 |  |  |  | 
8 | CCC(C(=O)OCCCN1CCN(CCCOC(=O)C(CC)c2ccccc2)CC1)c1ccccc1 (centres unmarked) [Compound 1843, N,N'-bis[3-(2-phenyl-2-ethylacetoxy)propyl]piperazine] | 8 | 0.45 | 7 |  |  |  | 
9 | CCCCC(C(=O)OCCN1CCN(CCOC(=O)C(CCCC)c2ccc(OC)c(OC)c2)CC1)c1ccc(OC)c(OC)c1 (centres unmarked) [Compound 1849, N,N'-bis[2-[2-n-butyl-2-(3,4-dimethoxyphenyl)acetoxy]ethyl]piperazine dihydrochloride] | 10 | 0.2 | 12 |  |  |  | 
10 | CCC(C(=O)OCCN1CCN(CCOC(=O)C(CC)c2ccc(OC)c(OC)c2)CC1)c1ccc(OC)c(OC)c1.Cl.Cl (centres unmarked) [Compound 1835, N,N'-bis[2-[2-(3,4-dimethoxyphenyl)-2-ethylacetoxy]ethyl]piperazine dihydrochloride] | 120 |  |  | ~200 | 1.2 | 120 | 
11 | CC(C(=O)OCCN1CCN(CCOC(=O)C(C)(c2ccccc2)c2ccccc2)CC1)(c1ccccc1)c1ccccc1 [Compound 1854, N,N'-bis[2-(2,2-diphenyl-2-methylacetoxy)ethyl]piperazine dihydrochloride] | 45 | 0.2 | 20 |  |  |  | 
12 | CCC(C(=O)OCCN1CCN(CCOC(=O)C(CC)c2ccccc2Cl)CC1)c1ccccc1Cl (centres unmarked) [Compound 1779, N,N'-bis[2-[2-(2-chlorophenyl)-2-ethylacetoxy]ethyl]piperazine dihydrochloride] | 40 | 1 | 60 |  |  |  | 
13 | CCC(C(=O)OCCN1CCN(CCOC(=O)C(CC)c2ccc(F)cc2)CC1)c1ccc(F)cc1 (centres unmarked) [Compound 1777, N,N'-bis[2-[2-(4-fluorophenyl)-2-ethylacetoxy]ethyl]piperazine dihydrochloride] | 60 | 1.2 | 60 |  |  |  | 
14 | CCC(C(=O)OCCN1CCN(CCOC(=O)C(CC)c2ccccc2)CC1)c1ccccc1.Cl.Cl (centres unmarked) [Compound 480, N,N'-bis[2-(2-phenyl-2-ethylacetoxy)ethyl]piperazine dihydrochloride] | 60 |  |  | 100 to 200 |  |  | 45
15 | CCCC(C(=O)OCCN1CCN(CCOC(=O)C(CCC)c2ccc(OC)c(OC)c2)CC1)c1ccc(OC)c(OC)c1 (centres unmarked) [Compound 1850, N,N'-bis[2-[2-(3,4-dimethoxyphenyl)-2-propylacetoxy]ethyl]piperazine dihydrochloride] | 20 | 0.2 | 20 |  |  |  | 
